According to PubChem BioAssay AID248 (DTP/NCI, 2004):
Where “and” joins values, the source holds several entries; their conditions need not be identical. Equal entries are not always repeated. Inconclusive results and toxic doses are left out. Cut-off read from the data, not from the text of the source: active = T/C of 150% or more; inactive = T/C below 125%.

System: L1210 leukemia ip in BDF1 mice, survival T/C
Assay: NCI In Vivo Anticancer Drug Screen. Data for tumor model L1210 Leukemia (intraperitoneal) in B6D2F1 (BDF1) mice
Conditions: endpoint: mean survival time, higher = longer survival
Outline: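 Read-out is survival time, reported as the treated-group measurement over the vehicle-control measurement.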

[1] = dose: 100.0 mg/kg/injection, schedule: Q04DX003 (ip), vehicle: Klucel (hydroxypropylcellulose) (HPC)
[2] = dose: 100.0 mg/kg/injection, schedule: Q04DX003 (ip), vehicle: saline
[3] = dose: 200.0 mg/kg/injection, schedule: Q04DX003 (ip), vehicle: Klucel (hydroxypropylcellulose) (HPC)
[4] = dose: 100.0 mg/kg/injection, schedule: Q01DX009 (ip), vehicle: saline with Tween-80
[5] = dose: 200.0 mg/kg/injection, schedule: Q01DX009 (ip), vehicle: saline with Tween-80
[6] = dose: 100.0 mg/kg/injection, schedule: Q01DX009 (ip), vehicle: Klucel (hydroxypropylcellulose) (HPC)
[7] = dose: 200.0 mg/kg/injection, schedule: Q01DX009 (ip), vehicle: Klucel (hydroxypropylcellulose) (HPC)
[8] = dose: 400.0 mg/kg/injection, schedule: Q01DX009 (ip), vehicle: Klucel (hydroxypropylcellulose) (HPC)
[9] = dose: 100.0 mg/kg/injection, schedule: Q01DX009 (ip), vehicle: saline

Measured: T/C

CC(=O)NNC(=O)c1ccccn1
inactive: dose: 4.0 mg/kg/injection, schedule: Q03HX024 (ip), vehicle: saline 109 % of control | dose: 8.0 mg/kg/injection, schedule: Q03HX008 (ip), vehicle: saline 96 % of control | dose: 8.0 mg/kg/injection, schedule: Q03HX016 (ip), vehicle: saline 111 % of control | dose: 8.0 mg/kg/injection, schedule: Q03HX024 (ip), vehicle: saline 105 % of control | dose: 16.0 mg/kg/injection, schedule: Q03HX008 (ip), vehicle: saline 105 % of control | dose: 16.0 mg/kg/injection, schedule: Q03HX016 (ip), vehicle: saline 98 % of control | dose: 16.0 mg/kg/injection, schedule: Q03HX024 (ip), vehicle: saline 104 % of control | dose: 32.0 mg/kg/injection, schedule: Q01DX009 (ip), vehicle: saline 104 % of control | dose: 32.0 mg/kg/injection, schedule: Q01DX009 (oral), vehicle: saline 102 % of control | dose: 32.0 mg/kg/injection, schedule: Q03HX008 (ip), vehicle: saline 103 % of control | dose: 32.0 mg/kg/injection, schedule: Q03HX016 (ip), vehicle: saline 104 % of control | dose: 32.0 mg/kg/injection, schedule: Q03HX024 (ip), vehicle: saline 108 % of control | dose: 32.0 mg/kg/injection, schedule: Q04DX003 (ip), vehicle: saline 108 % of control | dose: 64.0 mg/kg/injection, schedule: Q01DX001 (ip), vehicle: saline 102 % of control | dose: 64.0 mg/kg/injection, schedule: Q01DX001 (oral), vehicle: saline 106 % of control | dose: 64.0 mg/kg/injection, schedule: Q01DX009 (ip), vehicle: saline 108 % of control | dose: 64.0 mg/kg/injection, schedule: Q01DX009 (oral), vehicle: saline 114 % of control | dose: 64.0 mg/kg/injection, schedule: Q03HX008 (ip), vehicle: saline 109 % of control | dose: 64.0 mg/kg/injection, schedule: Q03HX016 (ip), vehicle: saline 111 % of control | dose: 64.0 mg/kg/injection, schedule: Q03HX024 (ip), vehicle: saline 117 % of control | dose: 64.0 mg/kg/injection, schedule: Q04DX003 (ip), vehicle: saline 100 % of control | dose: 64.0 mg/kg/injection, schedule: Q08DX002 (ip), vehicle: saline 104 % of control | dose: 75.0 mg/kg/injection, schedule: Q01DX Z (ip), vehicle: water 95 % of control and 105 % of control | dose: 100.0 mg/kg/injection, schedule: Q01DX Z (ip), vehicle: water 96 % of control and 103 % of control | dose: 128.0 mg/kg/injection, schedule: Q01DX001 (ip), vehicle: saline 100 % of control | dose: 128.0 mg/kg/injection, schedule: Q01DX001 (oral), vehicle: saline 108 % of control | dose: 128.0 mg/kg/injection, schedule: Q01DX009 (ip), vehicle: saline 124 % of control | dose: 128.0 mg/kg/injection, schedule: Q01DX009 (oral), vehicle: saline 119 % of control | dose: 128.0 mg/kg/injection, schedule: Q04DX003 (ip), vehicle: saline 103 % of control | dose: 128.0 mg/kg/injection, schedule: Q08DX002 (ip), vehicle: saline 103 % of control | dose: 150.0 mg/kg/injection, schedule: Q01DX Z (ip), vehicle: water 105 % of control and 89 % of control | dose: 256.0 mg/kg/injection, schedule: Q01DX001 (ip), vehicle: saline 109 % of control | dose: 256.0 mg/kg/injection, schedule: Q01DX001 (oral), vehicle: saline 108 % of control | dose: 256.0 mg/kg/injection, schedule: Q01DX009 (ip), vehicle: saline 103 % of control | dose: 256.0 mg/kg/injection, schedule: Q04DX003 (ip), vehicle: saline 105 % of control | dose: 256.0 mg/kg/injection, schedule: Q08DX002 (ip), vehicle: saline 109 % of control

CN(C)/N=C\c1ccc(C(=O)O)cc1
inactive: dose: 50.0 mg/kg/injection, schedule: Q04DX003 (ip), vehicle: Klucel (hydroxypropylcellulose) (HPC) 92 % of control | dose: 50.0 mg/kg/injection, schedule: Q04DX003 (ip), vehicle: saline 114 % of control | [1] 88 % of control | [2] 109 % of control | [3] 95 % of control | dose: 200.0 mg/kg/injection, schedule: Q04DX003 (ip), vehicle: saline 114 % of control | dose: 400.0 mg/kg/injection, schedule: Q04DX003 (ip), vehicle: Klucel (hydroxypropylcellulose) (HPC) 93 % of control | dose: 400.0 mg/kg/injection, schedule: Q04DX003 (ip), vehicle: saline 100 % of control

CC(C)(C)Sc1ccncc1
inactive: [4] 98 % of control | [5] 88 % of control

N#C[S-].N#C[S-].[Au+3].[Au+3].[CH3-].[CH3-].[CH3-].[CH3-]
inactive: dose: 50.0 mg/kg/injection, schedule: Q01DX009 (ip), vehicle: saline with Tween-80 96 % of control | [4] 109 % of control | [5] 105 % of control

Cc1cc2oc(=O)c(Cl)c(NCCO)c2c(C)c1Cl
inactive: [4] 104 % of control | [5] 96 % of control | dose: 400.0 mg/kg/injection, schedule: Q01DX009 (ip), vehicle: saline with Tween-80 95 % of control

Clc1ccc(CC23CCCCC2N3)cc1 (stereo unspecified)
inactive: dose: 100.0 mg/kg/injection, schedule: Q04DX003 (ip), vehicle: saline sonified 95 % of control | dose: 200.0 mg/kg/injection, schedule: Q04DX003 (ip), vehicle: saline sonified 108 % of control | dose: 400.0 mg/kg/injection, schedule: Q04DX003 (ip), vehicle: saline sonified 105 % of control

OCC1OC(n2cnc3c(SCc4ccccc4)nc(Cl)cc32)C(O)C1O (stereo unspecified)
inactive: dose: 100.0 mg/kg/injection, schedule: Q01DX005 (ip), vehicle: saline 95 % of control | dose: 200.0 mg/kg/injection, schedule: Q01DX005 (ip), vehicle: saline 93 % of control

NS(=O)(=O)c1ccc(NC(=O)Nc2cccc(Cl)c2Cl)cc1
inactive: [6] 101 % of control | [7] 101 % of control | [8] 95 % of control

COc1ccc(OC)c(NC(=O)c2ccc(Cl)cc2Cl)c1
inactive: [6] 95 % of control | [7] 93 % of control | [8] 95 % of control

Cc1ccc(S(=O)(=O)N(CCC(=N)N)C(C)C)cc1
inactive: dose: 25.0 mg/kg/injection, schedule: Q01DX009 (ip), vehicle: saline 91 % of control | dose: 50.0 mg/kg/injection, schedule: Q01DX009 (ip), vehicle: saline 96 % of control | [9] 96 % of control | [2] 104 % of control

O=C(O)c1cc(-c2ccccc2)cc(Br)c1O
inactive: dose: 100.0 mg/kg/injection, schedule: Q01DX001 (ip), vehicle: carboxymethylcellulose (CMC) 93 % of control | dose: 200.0 mg/kg/injection, schedule: Q01DX001 (ip), vehicle: carboxymethylcellulose (CMC) 95 % of control

Nc1ccc(CCCCc2c(N)nc(N)nc2N)cc1
inactive: [1] 97 % of control | [3] 93 % of control

N#CCCN(C(=O)Nc1cccc(Cl)c1)C1CCCCC1
inactive: [6] 103 % of control | [7] 90 % of control | [8] 97 % of control

CC(C)C(=O)[O][Sn]([CH3])([CH3])[CH3]
inactive: dose: 0.19 mg/kg/injection, schedule: Q01DX009 (ip), vehicle: Klucel (hydroxypropylcellulose) (HPC) 90 % of control | dose: 0.39 mg/kg/injection, schedule: Q01DX009 (ip), vehicle: Klucel (hydroxypropylcellulose) (HPC) 95 % of control | dose: 0.78 mg/kg/injection, schedule: Q01DX009 (ip), vehicle: Klucel (hydroxypropylcellulose) (HPC) 93 % of control and 106 % of control | dose: 0.78 mg/kg/injection, schedule: Q04DX002 (ip), vehicle: Klucel (hydroxypropylcellulose) (HPC) 95 % of control | dose: 1.56 mg/kg/injection, schedule: Q04DX002 (ip), vehicle: Klucel (hydroxypropylcellulose) (HPC) 100 % of control | dose: 3.12 mg/kg/injection, schedule: Q04DX002 (ip), vehicle: Klucel (hydroxypropylcellulose) (HPC) 103 % of control

CC1=C/C(=N\NC(N)=O)CCC1
inactive: dose: 100.0 mg/kg/injection, schedule: Q04DX002 (ip), vehicle: Klucel (hydroxypropylcellulose) (HPC) 97 % of control | dose: 200.0 mg/kg/injection, schedule: Q04DX002 (ip), vehicle: Klucel (hydroxypropylcellulose) (HPC) 86 % of control | dose: 400.0 mg/kg/injection, schedule: Q04DX002 (ip), vehicle: Klucel (hydroxypropylcellulose) (HPC) 105 % of control

C=COCCC(C(=O)OCC)C(=O)OCC
inactive: [9] 100 % of control | dose: 200.0 mg/kg/injection, schedule: Q01DX009 (ip), vehicle: saline 96 % of control | dose: 400.0 mg/kg/injection, schedule: Q01DX009 (ip), vehicle: saline 100 % of control
